Values quoted from earlier work, collected in patent US20210308173A1, “PHARMACEUTICAL COMPOSITION COMPRISING CYCLODEXTRIN COMPLEXES OF ANETHOLE TRITHIONE OR DERIVATIVES THEREOF” (priority 2018, published 2021).

Settings: background statement; cited from earlier work

In the case of `COc1ccc(-c2cc(=S)ss2)cc1` [AOL, 5-(4-methoxyphenyl)-3H-1,2-dithiole-3-thione], the intrinsic aqueous solubility is listed as “less than 0.3 mg/L”.
